The record followed here is ChEMBL document CHEMBL4402557, “Nidufexor (LMB763), a Novel FXR Modulator for the Treatment of Nonalcoholic Steatohepatitis” (J Med Chem, 2020).

The source made the active and inactive calls. The calls are words filed in the database; no cut-off is given here.

For series [1], the target named is T1, Bile acid receptor (Rattus norvegicus) (UniProt Q62735).
T1 sequence (whole entry): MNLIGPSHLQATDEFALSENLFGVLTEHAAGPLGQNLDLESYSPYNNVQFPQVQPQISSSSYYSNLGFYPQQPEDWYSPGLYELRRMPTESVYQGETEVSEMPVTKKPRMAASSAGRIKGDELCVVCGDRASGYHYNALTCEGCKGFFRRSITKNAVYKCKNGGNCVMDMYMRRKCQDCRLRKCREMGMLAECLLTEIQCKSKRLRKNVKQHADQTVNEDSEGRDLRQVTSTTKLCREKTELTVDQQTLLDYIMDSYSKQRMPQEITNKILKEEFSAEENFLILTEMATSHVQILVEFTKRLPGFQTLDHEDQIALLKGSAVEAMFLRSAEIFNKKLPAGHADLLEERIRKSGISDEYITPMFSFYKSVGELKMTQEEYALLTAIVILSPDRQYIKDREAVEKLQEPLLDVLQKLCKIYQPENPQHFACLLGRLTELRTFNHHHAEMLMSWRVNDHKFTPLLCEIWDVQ
Kind of series: Agonist activity at FXR in rat primary hepatocytes assessed as increase in BSEP mRNA level incubated for 24 hrs by qRT-PCR analysis relative to DMSO. The class given is cell-based. For orientation: In qPCR the cycle at which signal appears reflects the starting amount.

Series [2] is described as follows: Clearance in Wistar rat at 3 mg/kg, iv. The class given is ADME, organism-based. Particulars: in vivo.
Series [3] can be described thus: AUC in Wistar rat at 3 mg/kg, po. The format is ADME, organism-based. Particulars: in vivo.
A short description of series [4]: Oral bioavailability in dog at 2 mg/kg. The format is ADME, organism-based, Canis lupus familiaris. Particulars: in vivo.
For series [5], the system named is Mus musculus. The experiment in a line: Anti Steato-hepatitic activity in STZ/HFD induced oral dosed C57BL/6J mouse STAM model assessed as reduction in microvesicular fat deposition administered via oral gavage once daily for 3 weeks and measured on 9 week by H and E staining based assay. The format is functional, organism-based.
Series [6] addresses T1, Bile acid receptor (Rattus norvegicus). Kind of series: Agonist activity at FXR in rat primary hepatocytes assessed as increase in BSEP mRNA level incubated for 24 hrs by qRT-PCR analysis relative to tropifexor. The class given is cell-based.
Series [7] is described as follows: Volume of distribution at steady state in dog at 0.5 mg/kg, iv. The class given is ADME, organism-based, Canis lupus familiaris. Conditions: in vivo, read-out: Vdss.
Series [8] is described as follows: Metabolic stability in human liver microsomes assessed as hepatic extraction ratio. The class given is ADME, Microsome. Particulars: read-out: ERH. (In general: Liver microsomes are a subcellular fraction often used to study metabolism.)
Series [9] can be described thus: Cmax in Wistar rat at 3 mg/kg, po. The format is ADME, organism-based. Details: dose 3 mg/kg, route oral. Particulars: in vivo.
Series [10] in a line: Oral bioavailability in Wistar rat at 100 mg/kg. The format is ADME, organism-based. Conditions: in vivo.
The nature of series [11]: Ratio of AUC in liver to plasma in Wistar rat liver at 10 mg/kg, po. The format is ADME, organism-based. Conditions: read-out: Ratio AUC.
The nature of series [12]: AUC in Wistar rat brain at 10 mg/kg, po. The format is ADME, organism-based.
The subject of series [13] is Rattus norvegicus. The experiment in a line: In-vivo agonist activity at FXR in orally dosed Han Wistar rat assessed as upregulation of BSEP mRNA level in liver administered via oral gavage once daily for 14 days measured post last dose by qRT-PCR analysis. The format is functional, organism-based.
The species named for series [14] is Mus musculus. Kind of series: Anti Steato-hepatitic activity in C57BL/6J mouse STAM model assessed as change in Aldh1l2 gene level in liver. The class given is functional, organism-based.
For series [15], the target named is T2, Nuclear receptor subfamily 1 group I member 2 (Homo sapiens, UniProt O75469).
T2 sequence (O75469 whole entry): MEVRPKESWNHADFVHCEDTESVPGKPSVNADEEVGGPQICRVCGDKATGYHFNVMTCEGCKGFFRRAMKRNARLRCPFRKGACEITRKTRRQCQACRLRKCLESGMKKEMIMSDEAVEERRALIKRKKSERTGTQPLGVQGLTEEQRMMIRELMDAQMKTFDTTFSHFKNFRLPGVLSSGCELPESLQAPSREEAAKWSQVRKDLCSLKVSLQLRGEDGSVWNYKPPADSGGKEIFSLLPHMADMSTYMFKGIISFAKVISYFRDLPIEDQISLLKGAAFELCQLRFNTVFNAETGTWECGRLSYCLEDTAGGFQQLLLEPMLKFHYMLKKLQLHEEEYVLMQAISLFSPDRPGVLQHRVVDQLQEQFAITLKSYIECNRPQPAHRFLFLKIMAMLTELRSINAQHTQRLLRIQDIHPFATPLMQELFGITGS
Kind of series: Agonist activity at PXR (unknown origin) incubated for 2 hrs by TR-FRET assay.

For series [16], the target named is T3, Estrogen receptor (Homo sapiens, UniProt P03372).
T3 sequence (P03372 whole entry): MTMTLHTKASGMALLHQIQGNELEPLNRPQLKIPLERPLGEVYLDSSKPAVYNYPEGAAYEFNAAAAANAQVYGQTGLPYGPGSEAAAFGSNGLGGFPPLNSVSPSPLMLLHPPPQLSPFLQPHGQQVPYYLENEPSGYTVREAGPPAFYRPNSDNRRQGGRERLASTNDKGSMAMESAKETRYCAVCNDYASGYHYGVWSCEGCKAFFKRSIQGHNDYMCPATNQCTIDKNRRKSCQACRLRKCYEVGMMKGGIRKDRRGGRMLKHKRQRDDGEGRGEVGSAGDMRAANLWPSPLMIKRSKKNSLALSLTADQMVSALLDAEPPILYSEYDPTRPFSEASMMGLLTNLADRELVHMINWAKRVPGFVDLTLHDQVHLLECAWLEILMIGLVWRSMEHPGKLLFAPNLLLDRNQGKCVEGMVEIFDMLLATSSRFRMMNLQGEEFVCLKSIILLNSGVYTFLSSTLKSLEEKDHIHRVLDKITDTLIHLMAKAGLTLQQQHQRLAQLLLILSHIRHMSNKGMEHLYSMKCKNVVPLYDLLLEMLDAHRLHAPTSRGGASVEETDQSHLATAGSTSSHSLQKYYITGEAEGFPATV
Kind of series: Agonist activity at ERalpha (unknown origin) incubated for 2 hrs by TR-FRET assay. In general terms: TR-FRET usually uses a lanthanide donor and a delayed reading to cut background.

A short description of series [17]: Volume of distribution at steady state in rabbit at 5 mg/kg, iv. The format is ADME, organism-based, Oryctolagus cuniculus. Conditions: in vivo, read-out: Vdss.
For series [18], the species on record is Mus musculus. The experiment in a line: Anti Steato-hepatitic activity in C57BL/6J mouse STAM model assessed as change in Map3k13 gene level in liver. The format is functional, organism-based.
Series [19] can be described thus: Metabolic stability in rat liver microsomes assessed as hepatic extraction ratio. The class given is ADME, Microsome. Particulars: read-out: ERH.
Series [20] can be described thus: Cmax in Wistar rat at 10 mg/kg, po. The class given is ADME, organism-based. Details: dose 10 mg/kg, route oral. Conditions: in vivo.
A short description of series [21]: Half life in dog at 0.5 mg/kg, iv. The format is ADME, organism-based, Canis lupus familiaris. Particulars: in vivo.
Series [22] is described as follows: Half life in rabbit at 5 mg/kg, iv. The class given is ADME, organism-based, Oryctolagus cuniculus. Particulars: in vivo.
Series [23] has as its system Rattus norvegicus. The experiment in a line: In-vivo agonist activity at FXR in orally dosed Han Wistar rat assessed as upregulation of SHP mRNA level in liver administered via oral gavage once daily for 14 days measured post last dose by qRT-PCR analysis. The class given is functional, organism-based.
For series [24], the system named is Mus musculus. Kind of series: Anti Steato-hepatitic activity in STZ/HFD induced oral dosed C57BL/6J mouse STAM model assessed as reduction in hepatocellular ballooning administered via oral gavage once daily for 3 weeks and measured on 9 week by H and E staining based assay. The format is functional, organism-based.

A word on the clearance: it is a measure of how efficiently the substance is removed, as volume per time. High values mean a high capacity for elimination, low ones a low capacity for elimination. Broadly, the AUC is the area under the concentration-time curve, a measure of exposure. A high value points to high exposure. For orientation: bioavailability means dose-corrected exposure relative to a reference, in per cent. Lower therefore signals little systemic uptake. As usually defined, the Cmax is the highest concentration seen after dosing. As usually defined, the EC50 is the concentration at which the effect is half-maximal. Read a low EC50 as higher potency in that assay. Broadly, the half-life is the time in which the quantity being followed falls by half. Low readings indicate fast loss, high ones slow loss. As for `Cn1nc(C(=O)N(Cc2ccccc2)Cc2ccc(C(=O)O)cc2)c2c1-c1cc(Cl)ccc1OC2` [NIDUFEXOR], the fold change (FC) in [1] was found to be 24. In addition, the clearance in series [2] came out at 7 mL/min/kg. The AUC in series [3] stood at 9.2 µM·h; in series [12] it was 1.11 µM·h. Besides, the bioavailability in series [4] came out at 80%; in [10] it was 82%. The Activity entry is “Dose-dependent effect” in series [5]; 3.7% in series [6]; “Dose-dependent effect” in [13]; “Dose-dependent effect” in [23]; “Dose-dependent effect” in [24]. The Vd amounted to 1.1 L/kg in [7] and 0.6 L/kg in series [17]. Moreover, the hepatic extraction ratio in series [8] was below 0.21; in series [19], below 0.18. Further, the figures for the peak concentration (Cmax) in [9] and in series [20] were 4.5 µM and 12.4 µM, respectively. Moreover, the Kp in series [11] was 1.5. In addition, the result in series [14] and in series [18] was Active. Further, the EC50 in [15] and in series [16] was above 30 µM throughout. Moreover, the half-life was 6.8 h in series [21] and 4.4 h in series [22].
